Series [1] relates to PBMC. Description: Cytotoxicity against human PBMC at IC50 concentration after 48 hrs by MTT assay. It counts as cell-based.
Series [2] relates to Leishmania donovani. Description: Antileishmanial activity against Leishmania donovani promastigotes after 48 hrs by MTT assay. The class given is functional, organism-based. Background: Tetrazolium dyes change colour on reduction, which living cells bring about.
Series [3] relates to PBMC. Description: Cytotoxicity against human PBMC at 2 times IC50 concentration after 48 hrs by MTT assay. The class given is cell-based.
Series [4] relates to Leishmania donovani. Description: Antileishmanial activity against Leishmania donovani amastigotes after 48 hrs by MTT assay. The class given is functional, organism-based.
The test system of series [5] is Leishmania donovani. Description: Antileishmanial activity against Leishmania donovani infected in golden Syrian hamsters assessed as reduction of spleen weight at 250 mg/kg, ip administered 20 days after infection for 10 days (reference value: 503 +/- 34 mg). The class given is functional. The note with it: route intraperitoneal.
Series [6] relates to Leishmania donovani. Description: Antileishmanial activity against Leishmania donovani infected in golden Syrian hamsters assessed as reduction of spleen parasitic burden at 250 mg/kg, ip administered 20 days after infection for 10 days relative to control. Further details: scale not given: the % may be the effect or the level left. The class given is functional. The settings on record: route intraperitoneal.

In series [7] the test system is Leishmania donovani. Description: Antileishmanial activity against Leishmania donovani infected in golden Syrian hamsters assessed as reduction of spleen weight at 250 mg/kg, ip administered 20 days after infection for 10 days relative to control. It counts as functional. Also noted: scale not given: the % may be the effect or the level left. The note with it: route intraperitoneal.

Series [8] concerns Leishmania donovani. Description: Antileishmanial activity against Leishmania donovani infected in golden Syrian hamsters assessed as reduction of spleen parasitic burden at 12.5 mg/kg, po administered 20 days after infection for 10 days relative to control. The class given is functional. Further details: scale not given: the % may be the effect or the level left.
In series [9] the test system is Leishmania donovani. Description: Antileishmanial activity against Leishmania donovani infected in golden Syrian hamsters assessed as reduction of spleen weight at 12.5 mg/kg, po administered 20 days after infection for 10 days (reference value: 503 +/- 34 mg). The class given is functional.
The test system of series [10] is Leishmania donovani. Description: Antileishmanial activity against Leishmania donovani infected in golden Syrian hamsters assessed as reduction of spleen weight at 12.5 mg/kg, po administered 20 days after infection for 10 days relative to control. Further details: scale not given: the % may be the effect or the level left. It counts as functional.

What is called IC50 is the concentration at which inhibition is half-maximal. Turning to `COC(=O)[C@@H](N)CCSC`, the Activity in series [1] stood at 1.5%; in series [3], 7.3%. Also, the IC50 in [2] was determined as 1930 µM; in series [4], 1900 µM.
On the same counts, the results for `COC(=O)C(CCSC)NC(=O)/C=C/C=C/c1ccc2c(c1)OCO2` (stereo unspecified) are 4%, 7.5%, 823 µM and 168 µM.
For the compound `COC(=O)C(Cc1ccc(O)cc1)NC(=O)CCCCc1ccc2c(c1)OCO2` (stereo unspecified), the Activity in [1] is on record as 5%; in series [3], 7.6%. In addition, the IC50 in series [2] came to 536 µM; in series [4] it was 202 µM.
Take `COC(=O)C(NC(=O)CCCCc1ccc2c(c1)OCO2)C(C)C` (stereo unspecified): the Activity is given as 4.5% in [1] and 7.7% in series [3]. In addition, the concentration for half-maximal inhibition (IC50) was 722 µM in [2] and 240 µM in series [4].
Regarding `COC(=O)C(CCSC)NC(=O)CCCCc1ccc2c(c1)OCO2` (stereo unspecified), the Activity was determined as 3% in [1] and 5% in [3]. In addition, the IC50 in series [2] came out at 607 µM; in series [4], 221 µM.
In the same order, the values of `COC(=O)C(Cc1c[nH]c2ccccc12)NC(=O)CCCCc1ccc2c(c1)OCO2` (stereo unspecified) are 2.5%, 5%, 473 µM and 176 µM.
On the same counts, the results for `COC(=O)[C@@H](N)C(C)C` are 4%, 6%, 2350 µM and 1760 µM.
Take `COC(=O)C(Cc1ccccc1)NC(=O)/C=C/C=C/c1ccc2c(c1)OCO2` (stereo unspecified): the Activity in [1] worked out at 4%; in series [5], 353 mg; in series [6], 35%; in series [7] it was 30%; in [3], 7%. Moreover, the figures for the IC50 in series [2] and in series [4] were 834 µM and 197 µM, respectively.
With `COC(=O)C(Cc1ccc(O)cc1)NC(=O)/C=C/C=C/c1ccc2c(c1)OCO2` (stereo unspecified), the Activity is 3.5% in series [1] and 6% in [3]. Moreover, the IC50 in [2] is 791 µM; in series [4] it was 210 µM.
Turning to `COC(=O)C(NC(=O)/C=C/C=C/c1ccc2c(c1)OCO2)C(C)C` (stereo unspecified), the Activity in [1] was 3%; in [5], 516 mg; in series [6] it was 24%; in series [3], 3.8%. For the same compound, the IC50 in [2] was determined as 875 µM; in series [4], 75 µM.
As to `COC(=O)C(Cc1c[nH]c2ccccc12)NC(=O)/C=C/C=C/c1ccc2c(c1)OCO2` (stereo unspecified), the Activity came out at 3% in series [1] and 5.2% in series [3]. Further, the IC50 in series [2] was determined as 855 µM; in [4], 119 µM.
As to `O=C(/C=C/C=C/c1ccc2c(c1)OCO2)NC(Cc1ccccc1)C(=O)O` (stereo unspecified), the Activity is given as 1.2% in [1] and 8.5% in series [3]. For the same compound, the IC50 turned out to be 927 µM in series [2] and 256 µM in series [4].
On the same counts, the results for `O=C(/C=C/C=C/c1ccc2c(c1)OCO2)NC(Cc1ccc(O)cc1)C(=O)O` (stereo unspecified) are 4%, 6%, 761 µM and 249 µM.
On the same counts, the results for `CC(C)C(NC(=O)/C=C/C=C/c1ccc2c(c1)OCO2)C(=O)O` (stereo unspecified) are 5.5%, 9%, 1030 µM and 310 µM.
With `CSCCC(NC(=O)/C=C/C=C/c1ccc2c(c1)OCO2)C(=O)O` (stereo unspecified), the Activity in series [1] was found to be 1.8%; in [3], 7.7%. Also, the figures for the IC50 in series [2] and in [4] were 1310 µM and 237 µM, respectively.
As for `O=C(/C=C/C=C/c1ccc2c(c1)OCO2)NC(Cc1c[nH]c2ccccc12)C(=O)O` (stereo unspecified), the results for the Activity in [1] and in series [3] were 3.6% and 10%, respectively. The IC50 in series [2] stood at 1020 µM; in series [4], 236 µM.
In the same order, the values of `COC(=O)C(Cc1ccccc1)NC(=O)CCCCc1ccc2c(c1)OCO2` (stereo unspecified) are 5.5%, 7.2%, 669 µM and 212 µM.
As for `CCCCCCCCCCCCCCCCOP(=O)([O-])OCC[N+](C)(C)C` [MILTEFOSINE], the Activity in series [1] is 29%; in [8], 87%; in series [9] it was 287 mg; in series [10], 43%; in [3] it was 35%. The IC50 in series [2] was found to be 33 µM; in [4] it was 18 µM.
On to `O=C(O)/C=C/C=C/c1ccc2c(c1)OCO2` [PIPERIC ACID], for which the Activity is reported as 4.5% in series [1] and 8% in series [3]. The IC50 in series [2] came to 1760 µM; in series [4], 395 µM.
In the same order, the values of `O=C(/C=C/C=C/c1ccc2c(c1)OCO2)N1CCCCC1` [PIPERINE] are 7%, 10%, 2560 µM and 752 µM.
For `COC(=O)[C@@H](N)Cc1c[nH]c2ccccc12` [TRYPTOPHAN METHYL ESTER], the Activity is 1.8% in series [1] and 5.3% in [3]. The results for the IC50 in [2] and in series [4] were 1370 µM and 1420 µM, respectively.
In the same order, the values of `COC(=O)[C@@H](N)Cc1ccc(O)cc1` [TYROSINE METHYL ESTER] are 0.3%, 5%, 2090 µM and 1400 µM.

The values are drawn from ChEMBL document CHEMBL1208686, “Synthesis and antileishmanial activity of piperoyl-amino acid conjugates” (Eur J Med Chem, 2010).
